Source: patent US5137897A, “2-substituted 4-(3-alkyl-5-tert.-butyl-4-hydroxyphenyl) thiazoles, processes for their preparation, pharmaceuticals containing them and their use” (Hoechst Aktiengesllschaft, priority 1989, dated 1992)
Where two headings read alike, the source gives them in different places.

Experiments:
[1] = system: Arthus reaction (paw volume increase) in rats; test: Reverse passive Arthus reaction; assay type: in vivo, rat (male Sprague-Dawley)
Description: b) Reverse passive Arthus reaction
Male Sprague-Dawley rats having a body weight between 100 and 120 g. which had been divided into groups of 8 animals in each case, were used as experimental animals. The animals received a subplantar injection in the left hind paw of 0.5 mg of immunoglobulin in 0.1 ml of a sodium chloride solution 1 hour after oral administration of the test substance. After 4 hours, the Arthus reaction was measured, the percentage change in the paw volume increase compared to that of the control group treated only with vehicle being used as a measuring parameter for the action.

[2] = Free radical scavenger properties (reaction with DPPH); details: reaction with DPPH at 20° C.; determined graphically
Description: a) Free radical scavenger properties The testing in this test, which allows conclusions on the antioxidative potential of a substance, was carried out according to Smith et al., Biochem, Pharmacol. 1987. 36, 1456. In this test, the reaction of the compounds according to the invention with the stable free radical 1,1-diphenyl-2-picrylhydrazyl (DPPH) is monitored optically at 20° C. The rate constant K and reaction orders n in Table 5 were determined graphically in the customary manner.

[3] = target: T1, cyclooxygenase (Ovis aries, UniProt P05979); test: Cyclooxygenase (microsomes) inhibition in vitro; assay type: biochemical, sheep
T1 construct: microsomal cyclooxygenase system (fraction from sheep seminal vesicles, Paesel, Frankfurt, Germany); purchased Paesel, Frankfurt, Germany; host or cells: sheep seminal vesicles (microsomal fraction)
T1 sequence (P05979 25-600): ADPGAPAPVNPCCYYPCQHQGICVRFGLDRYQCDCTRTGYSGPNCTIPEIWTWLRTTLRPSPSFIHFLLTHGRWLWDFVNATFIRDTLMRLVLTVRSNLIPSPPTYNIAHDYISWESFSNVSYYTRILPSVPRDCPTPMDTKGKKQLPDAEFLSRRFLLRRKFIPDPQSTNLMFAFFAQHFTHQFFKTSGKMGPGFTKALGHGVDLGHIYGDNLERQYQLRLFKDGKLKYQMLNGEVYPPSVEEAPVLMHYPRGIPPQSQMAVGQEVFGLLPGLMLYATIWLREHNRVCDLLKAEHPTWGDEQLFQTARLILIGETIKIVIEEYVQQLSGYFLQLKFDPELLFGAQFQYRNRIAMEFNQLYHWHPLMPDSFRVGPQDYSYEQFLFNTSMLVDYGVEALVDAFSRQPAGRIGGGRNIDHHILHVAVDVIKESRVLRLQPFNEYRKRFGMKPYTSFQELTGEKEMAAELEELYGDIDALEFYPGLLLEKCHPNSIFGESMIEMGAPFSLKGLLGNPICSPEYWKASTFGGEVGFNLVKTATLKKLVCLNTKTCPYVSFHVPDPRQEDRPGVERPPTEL
Description: (§1) The inhibitory action of the compounds according to the invention is measured on the in vitro arachidonic acid degradation catalyzed by cyclooxycenase and lipoxycenase with the aid of the test systems described in Weithmann and Alpermann, Arzneim.-Forsch. 1985, 35, 947: The cyclooxygenase-catalyzed synthesis of prostaglandins from arachidonic acid is measured in the microsomal cyclooxygenase system (fraction from sheep seminal vesicles, Paesel, Frankfurt, Germany). The coenzyme is adrenaline, whose conversion to adrenochrome is monitored by spectrophotometry at 492 nm. Cis-9-cis-12-linoleic acid is incubated with lipoxygenase (L7127, Sigma, Deisenhofen, Germany) in the lipoxygenase system in vitro and the formation of conjugated double bonds taking place during the oxygenation reaction is monitored optically at 234 nm.
The inhibitor actions, or the inhibitor concentrations necessary for a 50 % inhibition of enzyme activity (IC50 values), have been determined for the following examples according to the invention:
Cyclooxygenase (microsomes)

[4] = target: T2, lipoxygenase (Glycine max, UniProt P08170); test: Lipoxygenase (enzyme) inhibition in vitro; assay type: biochemical
T2 construct: purchased Sigma, Deisenhofen, Germany L7127
T2 sequence (P08170 1-839): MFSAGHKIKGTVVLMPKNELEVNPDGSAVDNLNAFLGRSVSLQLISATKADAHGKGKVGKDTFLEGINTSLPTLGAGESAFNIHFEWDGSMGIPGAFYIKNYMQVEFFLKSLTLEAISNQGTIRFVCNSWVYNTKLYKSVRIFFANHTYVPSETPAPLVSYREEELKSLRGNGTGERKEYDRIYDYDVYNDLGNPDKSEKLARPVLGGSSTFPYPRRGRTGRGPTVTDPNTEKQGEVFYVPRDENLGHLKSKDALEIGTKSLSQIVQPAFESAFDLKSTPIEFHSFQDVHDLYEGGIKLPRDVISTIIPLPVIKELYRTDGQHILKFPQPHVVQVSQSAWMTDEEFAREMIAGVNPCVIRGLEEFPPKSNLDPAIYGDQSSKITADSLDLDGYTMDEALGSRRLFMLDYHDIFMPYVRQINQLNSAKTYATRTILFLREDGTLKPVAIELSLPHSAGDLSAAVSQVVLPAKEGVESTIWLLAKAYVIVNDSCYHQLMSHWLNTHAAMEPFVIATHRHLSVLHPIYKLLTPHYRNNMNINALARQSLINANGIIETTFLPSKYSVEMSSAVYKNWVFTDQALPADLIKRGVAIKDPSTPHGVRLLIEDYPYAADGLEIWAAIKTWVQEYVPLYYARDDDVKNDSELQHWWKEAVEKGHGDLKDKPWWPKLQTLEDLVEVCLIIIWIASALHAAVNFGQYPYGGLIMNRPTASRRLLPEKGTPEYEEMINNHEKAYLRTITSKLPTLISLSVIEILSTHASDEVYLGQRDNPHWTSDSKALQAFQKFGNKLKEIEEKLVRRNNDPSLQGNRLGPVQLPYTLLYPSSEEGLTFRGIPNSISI
Description: as §1
The inhibitor actions, or the inhibitor concentrations necessary for a 50 % inhibition of enzyme activity (IC50 values), have been determined for the following examples according to the invention: […]

[5] = system: Adjuvant arthritis (paw volume increase) in rats; test: Adjuvant arthritis (method of Pearson), antiinflammatory action on the 5th day; assay type: in vivo, rat (male, Wistar-Lewis strain); details: Rattus norvegicus, 120 h; for ED50: adjuvant arthritis, oral, determined graphically from dose-response curve; for inhibition in vivo at 50 mg/kg: po, 50 mg/kg p.o. once daily, 1st to 5th day, vs untreated control, read-out: Adjuvant arthritis (% inhibition at 50 mg/kg orally)
Description: The testing of the compounds of the formula I according to the invention for antiinflammatory action, influence on immunopathological processes, oxygen free radicaldeactivating properties and influence on arachidonic acid metabolism was carried out in the animal models and bioassays described in the following.
1. Adjuvant arthritis for influencing the antiinflammatory action (Table 2)
(§2) The investigations were carried out by the method of Pearson (Arthrit. Rheum. 1959, 2, 44). Male rats of a Wistar-Lewis strain having a body weight between 130 and 200 g were used as experimental animals. The compounds to be tested were administered orally (p. o.) once daily from the 1st to the 5th experimental day in doses of 50 mg per kg of body weight. The animals of one control group received only the vehicle. Each preparation group and the control group comprised 8 animals. The percentage reduction of the paw volume increase compared to that of the untreated control group was used as the criterion of action. The ED50 values were determined graphically from the dose-response curve.
(§3) 4-(3,5-Di-tert.-butyl-4-hydroxyphenyl)-2-methylthiazole i.e. the compound of the formula [drawing 26] according to US-A-4,535,165 mentioned at the beginning, was additionally included in this and the investigation below as a comparison preparation.

[6] = system: Adjuvant arthritis (Perper modification; paw volume) in rats; test: Adjuvant arthritis (Perper modification), paw volume on the 21st day; assay type: in vivo, rat (male, Wistar-Lewis strain); details: Rattus norvegicus, po, 504 h, 50 mg/kg/day, 1st to 12th day
Description: as §2, §3
a) Adjuvant arthritis (Perper modification)
The animals were only treated from the 1st to the 12th experimental day in the experimental arrangement described in item 1. After a treatment-free interval of 9 days, determination of the paw volume of the left and right hind paw was carried out on the 21st day (compare Table 3).

[7] = system: LTB4 formation in mast cell cultures; test: Influence on formation of LTB4 in mast cell cultures (rat); assay type: cell-based; details: read-out: LTB4, Residual activity (%)
Description: (§4) Moreover, the substances according to the invention were also characterized in cellular leukocyte systems in vitro as inhibitors of arachidonic acid metabolites. To detect the lipoxygenase metabolites, human neutrophils stimlated by calcium ionophore A 23 187 (70 mcmol/1) were incubated with ^14 C-arachidonic acid (81 mcmol/1) and the principal metabolites formed after 15 minutes at 37° C., such as 5-hydroxyeicosatetraenoic acid (5-HETE) and the more strongly proinflammatory leukotriene B4 (LTB4) were determined quantitatively (Tab. 6) with the aid of a radio monitor after separation by HPLC. The influence on the proinflammatory arachiconic acid metabolites thromboxane and LTB4 in cultures prepared from rat mast cells was determined in a corresponding manner (Tab. 7).

[8] = system: TXB2 formation in mast cell cultures; test: Influence on formation of TXB2 in mast cell cultures (rat); assay type: cell-based; details: read-out: TXB2, Residual activity (%)
Description: as §4

[9] = system: Adjuvant arthritis (Perper modification; paw volume) in rats; test: Adjuvant arthritis (Perper modification), paw volume on the 21st day; assay type: in vivo, rat (male, Wistar-Lewis strain); details: Rattus norvegicus, po, 504 h, 1st to 12th day; for inhibition in vivo at 2.5 mg/kg: 2.5 mg/kg/day; for inhibition in vivo at 5 mg/kg: 5 mg/kg/day; for inhibition in vivo at 10 mg/kg: 10 mg/kg/day
[10] = system: LTB4 formation in human neutrophils; test: Influence on LTB4 formation in human neutrophils; assay type: cell-based; details: Neutrophil
Description: as §4

[11] = system: 5-HETE formation in human neutrophils; test: Influence on 5-HETE formation in human neutrophils; assay type: cell-based; details: Neutrophil
Description: as §4

[12] = read-out: % inhibition on the 21st day, Left paw
[13] = read-out: % inhibition on the 21st day, Right paw

For `CCOC(=O)Cc1nc(-c2cc(C(C)(C)C)c(O)c(C(C)(C)C)c2)cs1` [Example 8], the “% inhibition (Arthus reaction)” value ([1]; 60 mg/kg orally) was 38%, the reaction order n [2] was 1 and the inhibition at 100 µM [3] was 75%. For the same molecule, the IC50 ([4]; Lipoxygenase (enzyme)) was 50 µM.

For `Cc1sc(CCC(=O)O)nc1-c1cc(C(C)(C)C)c(O)c(C(C)(C)C)c1` [Example 15], the “% inhibition (Arthus reaction)” value ([1]; 100 mg/kg orally) was 47%, the ED50 [5] was 2.6 mg/kg and the inhibition in vivo at 50 mg/kg [5] was 67%. It also gave an inhibition in vivo at 50 mg/kg [6, 12] of 39%, an inhibition in vivo at 50 mg/kg [6, 13] of 50% and a reaction order n [2] of less than 1. For the same molecule, the inhibition at 100 µM ([4]; at 100 μM) was 78%.

For `COC(=O)C=Cc1nc(-c2cc(C(C)(C)C)c(O)c(C(C)(C)C)c2)cs1` [Example 12], the reaction order n [2] was 1 and the inhibition at 50 µM ([4]; at 50 μM) was 73%.

`CCOC(=O)CCc1nc(-c2cc(C)c(O)c(C(C)(C)C)c2)cs1` [Example 16] showed a reaction order n [2] of less than 1 and an IC50 [3] of 34 µM.

In the case of `CC(C)(C)c1cc(-c2csc(CCC(=O)O)n2)cc(C(C)(C)C)c1O` [Example 3, 3-[4-(3,5-Di-tert.-butyl-4-hydroxyphenyl)thiazol-2-yl]propionic acid], the activity at 1 µM ([7]; 1 μM) is reported as 94 ± 12%, the activity at 10 µM ([7]; 10 μM) is reported as 102 ± 9% and the activity at 100 µM ([7]; 100 μM) is reported as 78 ± 14%. It also gave an ED50 [5] of 0.9 mg/kg, an inhibition in vivo at 50 mg/kg [5] of 84% and an activity at 1 µM ([8]; 1 μM) of 113 ± 49%. For the same molecule, the activity at 10 µM ([8]; 10 μM) was 94 ± 17%, the activity at 100 µM ([8]; 100 μM) was 28 ± 10% and the reaction order n [2] was less than 1. The inhibition in vivo at 2.5 mg/kg [9, 12] was 65%, the inhibition in vivo at 2.5 mg/kg [9, 13] was 59% and the inhibition in vivo at 5 mg/kg [9, 12] was 41%. It also gave an inhibition in vivo at 5 mg/kg [9, 13] of 74%.

For `CC(C)(C)c1cc(-c2csc(CCC(=O)NO)n2)cc(C(C)(C)C)c1O` [Example 7, 3-[4-(3 .-butyl-4-hydroxyphenyl)thiazol-2-yl]propionylhydroxamic acid], the ED50 [5] was 2.4 mg/kg, the inhibition in vivo at 50 mg/kg [5] was 83% and the activity at 0.1 µM ([10]; 0.1 μM, n = 6, read-out: LTB4 formation, Residual activity (%)) was 91 ± 13.2%. For the same molecule, the activity at 1 µM ([10]; 1 μM, n = 6, read-out: LTB4 formation, Residual activity (%)) was 74.3 ± 21.5%, the activity at 10 µM ([10]; 10 μM, n = 6, read-out: LTB4 formation, Residual activity (%)) was 35 ± 17% and the activity at 100 µM ([10]; 100 μM, n = 9, read-out: LTB4 formation, Residual activity (%)) was 1.7 ± 1.3%. The activity at 0.1 µM ([11]; 0.1 μM, n = 6, read-out: 5-HETE formation, Residual activity (%)) was 89.2 ± 12.1%, the activity at 1 µM ([11]; 1 μM, n = 6, read-out: 5-HETE formation, Residual activity (%)) was 87 ± 15.6% and the activity at 10 µM ([11]; 10 μM, n = 6, read-out: 5-HETE formation, Residual activity (%)) was 39 ± 12.8%. For the same molecule, the activity at 100 µM ([11]; 100 μM, n = 9, read-out: 5-HETE formation, Residual activity (%)) was 1.7 ± 0.4%, the reaction order n [2] was 1 and the inhibition at 100 µM [3] was 75%.

For `CN(O)C(=O)CCc1nc(-c2cc(C(C)(C)C)c(O)c(C(C)(C)C)c2)cs1` [Example 19], the “% inhibition (Arthus reaction)” value ([1]; 50 mg/kg orally) was 45%, the ED50 [5] was 2.5 mg/kg and the inhibition in vivo at 50 mg/kg [5] was 75%. It also gave a reaction order n [2] of less than 1, an inhibition in vivo at 5 mg/kg [9, 12] of 59% and an inhibition in vivo at 5 mg/kg [9, 13] of 70%. It also gave an inhibition in vivo at 10 mg/kg [9, 12] of 72% and an inhibition in vivo at 10 mg/kg [9, 13] of 85%.
